IC50 data for 21 compounds are collected here from US7714134B2, “Compounds and use of tetrahydropyridothiophenes” (4SC AG, priority 2004, dated 2010).

Assay [1] deals with RKO (RKOp27) human colon adenocarcinoma cells. Briefly: Alamar Blue cell viability assay, anti-proliferative/cytotoxic activity, RKO p27 uninduced. The assay is classed as cell-based. The settings on record: RKOp27, 72 h, proliferating cells, absence of the inducer Ponasterone A, 72 hours incubation. Here is the method: The anti-proliferative/cytotoxic activity of the compounds described herein, can be tested on subdlones of RKO (RKOp27) human colon adenocarcinoma cells (Schmidt et al., Oncogene 19, 2423-2429; 2000) using the Alamar Blue cell viability assay (described in O'Brien et al. Eur J Biochem 267, 5421-5426, 2000). The compounds are dissolved as 20 mM solutions in dimethylsulfoxide (DMSO) and subsequently diluted in semi-logarithmic steps. DMSO dilutions are further diluted 1:100 into Dulbecco's modified Eagle's medium (DMEM) containing 10% fetal calf serum to a final concentration twice as much as the final concentration in the test. RKO subclones are seeded into 96 well flat bottom plates at a density of 4000 cells per well in a volume of 50 µl per well. 24 hours after seeding the 50 μl each of the compound dilutions in DMEM medium are added into each well of the 96 Well plate. Each compound dilution is tested as quadruplicates. Wells containing untreated control cells are filled with 50 μl DMEM medium containing 1% DMSO. The cells are then incubated with the substances for 72 hours at 37° C. in a humidified atmosphere containing 5% carbon dioxide. To determine the viability of the cells, 10 μl of an Alamar Blue solution (Biosource) are added and the fluorescence is measured at an extinction of 544 nm and an emission of 590 nm. For the calculation of the cell viability the emission value from untreated cells is set as 100% viability and the emission rates of treated cells are set in relation to the values of untreated cells. Viabilities are expressed as % values.
The corresponding IC50 values of the compounds for anti-proliferative/cytotoxic activity are determined from the concentration-effect curves.
Representative IC50 values for anti-proliferation/cytotoxicity determined for the compounds mentioned and numbered as Examples in the examples above follow from the following table A (1st column), in which the numbers of the compound correspond to the numbers of the examples. Any or all of the compounds according to the present invention which are listed in the Table A, as well as their salts, are to be mentioned as a particular interesting subject of the present invention.

The test system of assay [2] is RKO colon adenocarcinoma cells (RKOp27) arrested by expression of ectopic p27Kip1. Briefly: Alamar Blue cell viability assay, cell cycle specific mode of action, RKO p27 induced (arrested by Ponasterone A-induced p27Kip1). The assay is classed as cell-based. The settings on record: Homo sapiens, RKOp27, 72 h, cells arrested by p27Kip1 induced with 10 μM Ponasterone A, 72 hours incubation. Here is the method: To determine the cell cycle specific mode of action, subdlones of RKO colon adenocarcinoma cells (RKOp27 or RKOp21 as described by Schmidt et al. in Oncogene 19, 2423-2429; 2000) are seeded into 96 well flat bottom plates at a density of 16000 cells per well in a volume of 50 μl per well in DMEM growth medium with 10% FCS containing 10 μM Ponasterone A. 24 hours after seeding the 50 μl each of the compound dilutions in DMEM medium are added into each well of the 96 Well plate. Each compound dilution is tested as quadruplicates. Wells containing untreated control cells are filled with 50 μl DMEM medium containing 1% DMSO. The cells are then incubated with the substances for 72 hours at 37° C. in a humidified atmosphere containing 5% carbon dioxide. To determine the viability of the cells, 10 μl of an Alamar Blue solution (Biosource) are added and the fluorescence was measured at an extinction of 544 nm and an emission of 590 nm. For the calculation of the cell viability the emission value from untreated cells is set as 100% viability and the emission rates of treated cells are set in relation to the values of untreated cells. Viabilities are expressed as % values. Viability is compared of proliferating cells grown in the absence of the inducer Ponasterone A, versus viability of cells arrested by the expression of ectopic p27Kip1 induced by Ponasterone A. The data of this experimental setting are summarized in table A (2nd column).
For orientation: The colour change of resazurin is a common sign of viable cells or microbes.

By IC50 is commonly meant the concentration that inhibits the measured activity by half. Read a high IC50 as a need for much substance. On to `N#Cc1c(NC(=O)c2ccccc2)sc2c1CCN(C(=O)OCc1cccnc1)C2` [Compound 63, 3-Cyano-2-[(1-phenyl-methanoyl)-amino]-4,7-dihydro-5H-thieno[2,3-c]pyridine-6carboxylic acid pyridin-3-ylmethyl ester], for which the half-maximal inhibitory concentration (IC50) is at most 3 µM in assay [1] and above 60 µM in assay [2].

With `CCCOC(=O)N1CCc2c(sc(NC(=O)c3ccccc3)c2C#N)C1` [Compound 64, 3-Cyano-2-[(1-phenyl-methanoyl)-amino]-4,7-dihydro-5H-thieno[2,3-c]pyridine-6-carboxylic acid propyl ester], the IC50 in assay [1] is at most 3 µM; in assay [2], above 60 µM.

`N#Cc1c(NC(=O)c2ccccc2)sc2c1CCN(C(=O)OCCc1ccccc1)C2` [Compound 65, 3-Cyano-2-[(1-phenyl-methanoyl)-amino]-4,7-dihydro-5H-thieno[2,3-c]pyridine-6-carboxylic acid phenethyl ester]: the IC50 was at most 3 µM in assay [1] and above 60 µM in assay [2].

`N#Cc1c(NC(=O)c2ccccc2)sc2c1CCN(C(=O)OCc1ccncc1)C2` [Compound 66, 3-Cyano-2-[(1-phenyl-methanoyl)-amino]-4,7-dihydro-5H-thieno[2,3-c]pyridine-6-carboxylic acid pyridin-4-ylmethyl ester]: the IC50 in assay [1] is at most 3 µM; in assay [2], above 60 µM.

Consider `N#Cc1c(NC(=O)c2ccccc2)sc2c1CCN(C(=O)OCCN1CCOCC1)C2` [Compound 67, 3-Cyano-2-[(1-phenyl-methanoyl)-amino]4,7-dihydro-5H-thieno[2,3-c]pyridine-6-carboxylic acid 2-morpholin-4-yl-ethyl ester], for which the IC50 was at most 3 µM in assay [1] and above 60 µM in assay [2].

As to `N#Cc1c(NC(=O)c2ccccc2)sc2c1CCN(C(=O)OCCc1ccccn1)C2` [Compound 68, 3-Cyano-2-[(1-phenyl-methanoyl)-amino]-4,7-dihydro-5H-thieno[2,3-c]pyridine-6-carboxylic acid 2-pyridin-2-yl-ethyl ester], the IC50 was at most 3 µM in assay [1] and above 60 µM in assay [2].

For `N#Cc1c(NC(=O)c2ccccc2)sc2c1CCN(C(=O)OCCCc1ccncc1)C2` [Compound 69, 3-Cyano-2-[(1-phenyl-methanoyl)-amino]-4,7-dihydro-5H-thieno[2,3-c]pyridine-6-carboxylic acid 3-pyridin-4-yl-propyl ester], the IC50 in assay [1] was at most 3 µM; in assay [2] it was above 60 µM.

In the case of `N#Cc1c(NC(=O)c2ccccc2)sc2c1CCN(C(=O)OCCCN1CCOCC1)C2` [Compound 70, 3-Cyano-2-[(1-phenyl-methanoyl)-amino]-4,7-dihydro-5H-thieno[2,3-c]pyridine-6-carboxylic acid 3-morpholin-4-yl-propyl ester], the IC50 in assay [1] is at most 3 µM; in assay [2], above 60 µM.

As to `N#Cc1c(NC(=O)c2ccccc2)sc2c1CCN(C(=O)OCCCc1ccccn1)C2` [Compound 71, 3-Cyano-2-[(1-phenyl-methanoyl)-amino]-4,7-dihydro-5H-thieno[2,3-c]pyridine-6-carboxylic acid 3-pyridin-2-yl-propyl ester], the results for the IC50 in assay [1] and in assay [2] were at most 3 µM and above 60 µM, respectively.

For the compound `N#Cc1c(NC(=O)c2ccccc2)sc2c1CCN(C(=O)OCCCc1cccnc1)C2` [Compound 72, 3-Cyano-2-[(1-phenyl-methanoyl)-amino]-4,7-dihydro-5H-thieno[2,3-c]pyridine-6-carboxylic acid 3-pyridin3-yl-propyl ester], the IC50 in assay [1] was at most 3 µM; in assay [2] it was above 60 µM.

With `N#Cc1c(NC(=O)c2ccccc2)sc2c1CCN(C(=O)OCCc1ccncc1)C2` [Compound 73, 3-Cyano-2-[(1-phenyl-methanoyl)-amino]4,7-dihydro-5H-thieno[2,3-c]pyridine-6-carboxylic acid 2-pyridin4-yl-ethyl ester], the IC50 in assay [1] was at most 3 µM; in assay [2], above 60 µM.

As for `CC1(C)OCC(COC(=O)N2CCc3c(sc(NC(=O)c4ccccc4)c3C#N)C2)O1` (stereo not drawn) [Compound 74, 3-Cyano-2-[(1-phenyl-methanoyl)-amino]-4,7-dihydro-5H-thieno[2,3-c]pyridine-6-carboxylic acid 2,2-dimethyl-[1,3]dioxolan-4-ylmethyl ester], the IC50 was at most 3 µM in assay [1] and above 60 µM in assay [2].

For `COCCOCCOC(=O)N1CCc2c(sc(NC(=O)c3ccccc3)c2C#N)C1` [Compound 75, 3-Cyano-2-[(1-phenyl-methanoyl)amino]-4,7-dihydro-5H-thieno[2,3-c]pyridine-6-carboxylic acid 2-(2-methoxy-ethoxy)-ethyl ester], the values for the IC50 in assay [1] and in assay [2] were at most 3 µM and above 60 µM, respectively.

As to `N#Cc1c(NC(=O)c2ccccc2)sc2c1CCN(C(=O)OCC(O)CO)C2` (stereo not drawn) [Compound 76, 3-Cyano-2-[(1-phenyl-methanoyl)-amino]-4,7-dihydro-5H-thieno[2,3-c]pyridine-6-carboxylic acid 2,3-dihydroxy-propyl ester], the IC50 in assay [1] is at most 3 µM; in assay [2], above 60 µM.

In the case of `N#Cc1c(NC(=O)c2ccccc2)sc2c1CCN(S(=O)(=O)c1ccc(N3CCOCC3)nc1)C2` [Compound 77, N-[3-Cyano-6-(6-morpholin-4-yl-pyridine-3-sulfonyl)-4,5,6,7-tetrahydro-thieno[2,3-c]pyridin-2-yl]-benzamide], the IC50 in assay [1] was at most 3 µM; in assay [2], above 60 µM.

Consider `COc1ccc(S(=O)(=O)N2CCc3c(sc(NC(=O)c4ccccc4)c3C#N)C2)cc1` [Compound 79, N-[3-Cyano-6-(4-methoxy-benzenesulfonyl)-4,5,6,7-tetrahydro-thieno[2,3-c]pyridin-2-yl]-benzamide], for which the IC50 was at most 3 µM in assay [1] and above 60 µM in assay [2].

Consider `N#Cc1c(NC(=O)c2ccccc2)sc2c1CCN(C(=O)NCCc1ccncc1)C2` [Compound 80, 3-Cyano-2-[(1-phenyl-methanoyl)-amino]-4,7-dihydro-5H-thieno[2,3-c]pyridine-6-carboxylic acid (2-pyridin-4-yl-ethyl)-amide], for which the IC50 in assay [1] is at most 3 µM; in assay [2], above 60 µM.

Turning to `N#Cc1c(NC(=O)c2ccccc2)sc2c1CCN(C(=O)NCCc1c[nH]c3ccccc13)C2` [Compound 81, 3-Cyano-2-[(1-phenyl-methanoyl)-amino]-4,7-dihydro-5H-thieno[2,3-c]pyridine-6-carboxylic acid [2-(1H-indol-3-yl)-ethyl]-amide], the IC50 in assay [1] was at most 3 µM; in assay [2] it was above 60 µM.

On to `N#Cc1c(NC(=O)c2ccccc2)sc2c1CCN(C(=O)NCCc1ccc([N+](=O)[O-])cc1)C2` [Compound 82, 3-Cyano-2-[(1-phenyl-methanoyl)amino]-4,7-dihydro-5H-thieno[2,3-c]pyridine-6-carboxylic acid [2-(4-nitro-phenyl)-ethyl]-amide], for which the IC50 in assay [1] was at most 3 µM; in assay [2] it was above 60 µM.

`CN(C)C(=O)CCC(=O)N1CCc2c(sc(NC(=O)c3ccccc3)c2C#N)C1` [Compound 83, N-[3-Cyano-6-(3-dimethylcarbamoyl-propanoyl)-4,5,6,7-tetrahydro-thieno[2,3-c]pyridin-2-yl]-benzamide]: the IC50 in assay [1] was at most 3 µM; in assay [2], above 100 µM.

Take `CC(=O)OCC(=O)N1CCc2c(sc(NC(=O)c3ccccc3)c2C#N)C1` [Compound 84, Acetic acid 2-3-cyano-2-[(1-phenyl-methanoyl)-amino]-4,7-dihydro-5H-thieno[2,3-c]pyridin-6-yl-2-oxo-ethyl ester]: the IC50 in assay [1] is at most 3 µM; in assay [2], above 100 µM.
